Species on record: Rattus norvegicus
Experiment: DrugMatrix - Regimen: Daily Repeat
Format: toxicity, organism-based, Sprague-Dawley
Parameters: regimen Daily Repeat, gender Male, age 6-8 weeks
Settings: in vivo, po, […], route oral GAVAGE, dose 6.5 mg/Kg, dose level Low, vehicle .5 % CMC; for ABSOLUTE BASOPHIL / ABSOLUTE EOSINOPHIL / ABSOLUTE MONOCYTE / ABSOLUTE SEGMENTED NEUTROPHIL / BASOPHIL / EOSINOPHIL / ERYTHROCYTE COUNT / HEMATOCRIT / HEMOGLOBIN / LEUKOCYTE COUNT / LYMPHOCYTE / MEAN CORPUSCULAR HEMOGLOBIN / MEAN CORPUSCULAR HEMOGLOBIN CONCENTRATION / MEAN CORPUSCULAR VOLUME / MONOCYTE / NEUTROPHIL / NUCLEATED RED BLOOD CELLS / PLATELET COUNT: tissue Blood; for ALANINE AMINOTRANSFERASE / ALBUMIN / ALKALINE PHOSPHATASE / ASPARTATE AMINOTRANSFERASE / BLOOD UREA NITROGEN / CARBON DIOXIDE / CHLORIDE / CHOLESTEROL / CREATINE PHOSPHOKINASE / CREATININE / GLUCOSE / LACTATE DEHYDROGENASE / LIPASE / PHOSPHORUS / POTASSIUM / SODIUM / TOTAL BILIRUBIN / TOTAL PROTEIN / URIC ACID: tissue Plasma

For `CN(C)CCOC(c1ccccc1)c1ccccc1.Cn1c(=O)c2[nH]c(Cl)nc2n(C)c1=O` [DIMENHYDRINATE], the “ABSOLUTE BASOPHIL” value (72 h, time 3 day) was 0 CELLS/uL, the “ABSOLUTE EOSINOPHIL” value (72 h, time 3 day) was 46.67 CELLS/uL and the “ABSOLUTE MONOCYTE” value (72 h, time 3 day) was 474 CELLS/uL. For the same molecule, the “ABSOLUTE SEGMENTED NEUTROPHIL” value (72 h, time 3 day) was 1911.67 CELLS/uL, the BASOPHIL (72 h, time 3 day) was 0% and the EOSINOPHIL (72 h, time 3 day) was 0.33%. The “ERYTHROCYTE COUNT” value (72 h, time 3 day) was 5.67 x10E6/uL, the HEMATOCRIT (72 h, time 3 day) was 35.5% and the HEMOGLOBIN (72 h, time 3 day) was 13.93 G/DL. For the same molecule, the “LEUKOCYTE COUNT” value (72 h, time 3 day) was 14.93 x10E3/uL, the LYMPHOCYTE (72 h, time 3 day) was 84% and the “MEAN CORPUSCULAR HEMOGLOBIN” value (72 h, time 3 day) was 24.57 pg. For the same molecule, the “MEAN CORPUSCULAR HEMOGLOBIN CONCENTRATION” value (72 h, time 3 day) was 39.27 G/DL, the “MEAN CORPUSCULAR VOLUME” value (72 h, time 3 day) was 62.6 fL and the MONOCYTE (72 h, time 3 day) was 3%. For the same molecule, the NEUTROPHIL (72 h, time 3 day) was 12.67%, the “NUCLEATED RED BLOOD CELLS” value (72 h, time 3 day) was 0 /100WBC and the “PLATELET COUNT” value (72 h, time 3 day) was 1199.33 x10E3/uL. The “ALANINE AMINOTRANSFERASE” value (72 h, time 3 day) was 47.67 u/L, the ALBUMIN (72 h, time 3 day) was 4.03 G/DL and the “ALKALINE PHOSPHATASE” value (72 h, time 3 day) was 343 u/L. The “ASPARTATE AMINOTRANSFERASE” value (72 h, time 3 day) was 87 u/L, the “BLOOD UREA NITROGEN” value (72 h, time 3 day) was 15 mg/dL and the “CARBON DIOXIDE” value (72 h, time 3 day) was 25.67 mmol/L. The CHLORIDE (72 h, time 3 day) was 102 MEQ/L, the CHOLESTEROL (72 h, time 3 day) was 75.33 mg/dL and the “CREATINE PHOSPHOKINASE” value (72 h, time 3 day) was 266 u/L. The CREATININE (72 h, time 3 day) was 0.14 mg/dL, the GLUCOSE (72 h, time 3 day) was 167.33 mg/dL and the “LACTATE DEHYDROGENASE” value (72 h, time 3 day) was 166 u/L. It also gave an LIPASE (72 h, time 3 day) of 9.33 u/L, a PHOSPHORUS (72 h, time 3 day) of 12.2 mg/dL and a POTASSIUM (72 h, time 3 day) of 6.53 MEQ/L. The SODIUM (72 h, time 3 day) was 144.67 MEQ/L, the “TOTAL BILIRUBIN” value (72 h, time 3 day) was 0.2 mg/dL and the “TOTAL PROTEIN” value (72 h, time 3 day) was 5.6 G/DL. The “URIC ACID” value (72 h, time 3 day) was 1.57 mg/dL, the “ABSOLUTE BASOPHIL” value (120 h, time 5 day) was 0 CELLS/uL and the “ABSOLUTE EOSINOPHIL” value (120 h, time 5 day) was 108.67 CELLS/uL. The “ABSOLUTE MONOCYTE” value (120 h, time 5 day) was 85.67 CELLS/uL, the “ABSOLUTE SEGMENTED NEUTROPHIL” value (120 h, time 5 day) was 1586.67 CELLS/uL and the BASOPHIL (120 h, time 5 day) was 0%. For the same molecule, the EOSINOPHIL (120 h, time 5 day) was 0.67%, the “ERYTHROCYTE COUNT” value (120 h, time 5 day) was 5.47 x10E6/uL and the HEMATOCRIT (120 h, time 5 day) was 34.93%. The HEMOGLOBIN (120 h, time 5 day) was 14.13 G/DL, the “LEUKOCYTE COUNT” value (120 h, time 5 day) was 19.43 x10E3/uL and the LYMPHOCYTE (120 h, time 5 day) was 91.67%. For the same molecule, the “MEAN CORPUSCULAR HEMOGLOBIN” value (120 h, time 5 day) was 25.8 pg, the “MEAN CORPUSCULAR HEMOGLOBIN CONCENTRATION” value (120 h, time 5 day) was 40.47 G/DL and the “MEAN CORPUSCULAR VOLUME” value (120 h, time 5 day) was 63.8 fL. For the same molecule, the MONOCYTE (120 h, time 5 day) was 0.33%, the NEUTROPHIL (120 h, time 5 day) was 7.33% and the “NUCLEATED RED BLOOD CELLS” value (120 h, time 5 day) was 0 /100WBC. The “PLATELET COUNT” value (120 h, time 5 day) was 1543 x10E3/uL, the “ALANINE AMINOTRANSFERASE” value (120 h, time 5 day) was 48.67 u/L and the ALBUMIN (120 h, time 5 day) was 4.17 G/DL. For the same molecule, the “ALKALINE PHOSPHATASE” value (120 h, time 5 day) was 266.33 u/L, the “ASPARTATE AMINOTRANSFERASE” value (120 h, time 5 day) was 77.33 u/L and the “BLOOD UREA NITROGEN” value (120 h, time 5 day) was 18.67 mg/dL. The “CARBON DIOXIDE” value (120 h, time 5 day) was 25 mmol/L, the CHLORIDE (120 h, time 5 day) was 96 MEQ/L and the CHOLESTEROL (120 h, time 5 day) was 71.33 mg/dL. For the same molecule, the “CREATINE PHOSPHOKINASE” value (120 h, time 5 day) was 225.67 u/L, the CREATININE (120 h, time 5 day) was 0.2 mg/dL and the GLUCOSE (120 h, time 5 day) was 159 mg/dL. For the same molecule, the “LACTATE DEHYDROGENASE” value (120 h, time 5 day) was 96.67 u/L, the LIPASE (120 h, time 5 day) was 10 u/L and the PHOSPHORUS (120 h, time 5 day) was 13.07 mg/dL. For the same molecule, the POTASSIUM (120 h, time 5 day) was 6.62 MEQ/L, the SODIUM (120 h, time 5 day) was 135.4 MEQ/L and the “TOTAL BILIRUBIN” value (120 h, time 5 day) was 0.13 mg/dL. For the same molecule, the “TOTAL PROTEIN” value (120 h, time 5 day) was 5.8 G/DL and the “URIC ACID” value (120 h, time 5 day) was 2.27 mg/dL.
